Assay results published in patent publication US11591353B2 (Mindset Pharma Inc., priority 2020, dated 2023).
Where two headings read alike, the source gives them in different places.

Tests used:
[1] = Liver microsomes stability, rat; conditions: for Remaining Percentage (%) after 60 min Rat: 2 μM, 0.5 mg/mL microsomes
Experimental: (§1) The objective of this study was to estimate in vitro metabolic stability of I-12 in pooled human, male rat and male mouse liver microsomes. The concentrations of parent compounds in reaction systems were evaluated by LC-MS/MS for estimating the stability in pooled human, male rat and male mouse liver microsomes. The in vitro intrinsic clearances of test compounds were determined as well.
(§2) A master solution in the “Incubation Plate” containing phosphate buffer, ultra-pure H2O, MgCl2 solution and liver microsomes was made according to Table-3. The mixture was pre-warmed at 37° C. water bath for 5 minutes.
(§3) 40 μL of 10 mM NADPH solution was added to each well. The final concentration of NADPH was 1 mM. The negative control samples were prepared by replacing NADPH with 40 μL of ultra-pure H2O. Samples were prepared in duplicate. Negative controls were prepared in singlet.
(§4) The reaction was started with the addition of 4 μL of 200 μM exemplary test compounds of the application or control compounds to each master solution to get the final concentration of 2 μM. This study was performed in duplicate.
(§5) Aliquots of 50 μL were taken from the reaction solution at 0, 15, 30, 45 and 60 minutes. The reaction solutions were stopped by the addition of 4 volumes of cold methanol with IS (100 nM alprazolam, 200 nM imipramine, 200 nM labetalol and 2 μM ketoprofen). Samples were centrifuged at 3,220 g for 40 minutes. Aliquot of 90 μL of the supernatant was mixed with 90 μL of ultra-pure H2O and then was used for LC-MS/MS analysis.
(§6) LC/MS analysis was performed for all samples from this study using a Shimadzu liquid chromatograph separation system equipped with degasser DGU-20A5R; solvent delivery unit LC-30AD; system controller SIL-30AC; column oven CTO-30A; CTC Analytics HTC PAL System. Mass spectrometric analysis was performed using an Triple Quad™ 5500 instrument.
(§7) All calculations were carried out using Microsoft Excel. Peak area ratios of test compound to internal standard (listed in the below table) were determined from extracted ion chromatograms.
(§8) All calculations were carried out using Microsoft Excel. Peak areas were determined from extracted ion chromatograms. The slope value, k, was determined by linear regression of the natural logarithm of the remaining percentage of the parent drug vs. incubation time curve.
(§9) Conversion of the in vitro t1/2 (min) into the in vitro intrinsic clearance (in vitro CLint, in μL/min/mg proteins) was done using the following equation (mean of duplicate determinations): […]

[2] = Liver microsomes stability, human; conditions: for Remaining Percentage (%) after 60 min Human: 2 μM, 0.5 mg/mL microsomes
Experimental: as §1, §2, §3, §4, §5, §6, §7, §8, §9

[3] = Liver microsomes stability, mouse; conditions: for Remaining Percentage (%) after 60 min Mouse: 2 μM, 0.5 mg/mL microsomes
Experimental: as §1, §2, §3, §4, §5, §6, §7, §8, §9

human 5-HT2A receptor = human 5-HT2A receptor (Homo sapiens (Human), UniProt P28223); assay: Radioligand binding assay on human 5-HT2A receptor ([3H]-ketanserin)
Experimental: i. Prepare the assay buffer following the table below;
ii. Preparation of 8 doses of reference and test compounds starting from 10 mM stock solution as requested by 5-fold serial dilutions with 100%;
iii. […] a. Add 50 μl/well of 0.5% (v/v) PEI to UniFilter-96 GF/B plates. Seal the plates and incubate at 4° C. for 3 hrs; b. After incubation, wash the plates 3 times with ice-cold wash buffer (50 mM Tris, pH7.4);
iv. Preparation of assay plates: a. Dilute cell membrane with assay buffer and add 330 μl/well to 96 round deep well plates to reach a concentration of 20 μg/well; b. […] Dilute [3H]-ketanserin with assay buffer to 5 nM (5× final concentration) and add 110 μl/well to 96 round deep well plates.
v. Centrifuge the plate at 1000 rpm for 30 secs and then agitate at 600 rpm, R.T. for 5 min.
vii. Stop the incubation by vacuum filtration onto GF/B filter plates followed by 4 times washing with ice-cold wash buffer (50 mM Tris, pH7.4).
ix. […]
For reference and exemplary test compounds of the application, the results are expressed as % Inhibition, using the normalization equation: N=100−100×(U−C2)/(C1−C2), where U is the unknown value, C1 is the average of high controls, and C2 is the average of low controls. The IC50 is determined by fitting percentage of inhibition as a function of compound concentrations with Hill equation using XLfit.

[4] = molecular target: human 5-HT2A (h5-HT2A) receptor (Homo sapiens (Human), UniProt P28223); assay: FLIPR assay, human 5-HT2A receptor under agonist mode; type: cell-based; conditions: agonist mode, FLIPR calcium assay; read-out: h5-HT2A EC50
Experimental: • I. Assessment of the activated effect of exemplary compounds of Formula I targeting on human 5-HT2A (h5-HT2A) receptor under agonist mode: Compound Preparation and Assay Controls I.a. Reagent and Materials:
1. Culture the cells in cell culture medium (DMEM containing 10% FBS 1× penicillin-streptomycin 300 μg/ml G418 and 100 μg/ml hygromycin B) at 37° C., 5% (v/v) CO2.
2. One day before the assays, detach the cell using TrypLE™ Express and count cells using cell counter.
3. Seed 20000 cells/well in 30 μl/well culture medium to a 384-well cell plate and incubate the cells overnight at 37° C., 5% (v/v) CO2.
4. On the assay day, prepare 2× dye solution following the manual of the FLIPR® Calcium 6 Assay Kit: i. Dilute the dye with assay buffer (20 mM HEPES in 1×HBSS, PH7.4); ii. Add probenecid to the final concentration of 5 mM; iii. Vortex vigorously for 1-2 minutes.
5. Medium from cell plate by flicking the cell plate on towel papers.
6. Add 10 μl of assay buffer and 10 μl of 2× dye solution to each well of the cell plate.
7. Put the cell plate on plate shaker, agitate the plate at 600 rpm for 2 minutes. Incubate the plate at 37° C. for 2 hours followed by additional 15-minute incubation at 25° C.
8. Prepare 3× compound in assay buffer: a. Dilute reference compounds to required concentration with DMSO. Add the compounds to a 384-well compound plate; b. Perform serial dilutions; c. Add 10 mM test compounds to the compound plate, perform 3-fold serial dilutions. d. […] Add 20 μl/well assay buffer to the compound plate; f. Mix the plate on plate shaker for 2 mins;
i. The normalized fluorescence reading (RFU) is calculated as shown follow, while Fmax and Fmin stand for maximum and minimum of calcium signal during defined time window: RFU=Fmax−Fmin
ii. Calculate the percentage activation by using following equation: […]
iii. Calculate EC50 by fitting % activation against log of compound concentrations with Hill equation using XLfit.

[5] = tobacco use disorder, cited from earlier work

Row | SMILES | half-life at 2 μM ([1]; male, rat, microsomes) [h] | microsomal CLint at 2 μM ([1]; male, rat, microsomes) [µL/min/mg] | Remaining Percentage (%) after 60 min Rat ([1]; with NADPH) [%] | half-life at 2 μM ([2]; human, microsomes) [h] | microsomal CLint at 2 μM ([2]; human, microsomes) [µL/min/mg] | metabolic stability in liver microsomes (in words) ([2]; human, rat and mouse liver microsomes, 60 minute) | Remaining Percentage (%) after 60 min Human ([2]; with NADPH) [%] | half-life at 2 μM ([3]; male, mouse, microsomes) [h] | microsomal CLint at 2 μM ([3]; male, mouse, microsomes) [µL/min/mg] | Remaining Percentage (%) after 60 min Mouse ([3]; with NADPH) [%] | IC50 (human 5-HT2A receptor) [nM] | EC50 [4] [nM] | CLint (μL/min/mg protein) Rat ([1]; with NADPH) [μL/min/mg protein] | t1/2 (min) Rat ([1]; with NADPH) [min] | CLint (μL/min/mg protein) Human ([2]; with NADPH) [μL/min/mg protein] | t1/2 (min) Human ([2]; with NADPH) [min] | CLint (μL/min/mg protein) Mouse ([3]; with NADPH) [μL/min/mg protein] | t1/2 (min) Mouse ([3]; with NADPH) [min] | abstinence rate ([5]; 12 months follow-up) [%] | abstinence rate ([5]; six months follow-up) [%]
1 | [2H]C([2H])([2H])N(C([2H])([2H])[2H])C([2H])([2H])C([2H])([2H])c1c[nH]c2cccc(OCc3ccccc3)c12 [Compound I-46, 2-(4-(benzyloxy)-1H-indol-3-yl)-N,N-bis(methyl-d3)ethan-1-amine-1,1,2,2-d4] | 0.593 | 39 | 108.23 | 1.31 | 17.6 | rapidly metabolized | 58.94 | 0.862 | 26.8 | 44.75 | 106 | 72.6 | – | – | – | – | – | – | – | –
2 | CN(C)CCc1c[nH]c2cccc(O)c12 [Psilocin, 4-hydroxy-N,N-dimethyltryptamine, reference compound] | – | – | 62.68 | – | – | – | 70.16 | – | – | 96.89 | – | – | 15.57 | 89.01 | 11.81 | 117.32 | 9.78 | 141.71 | – | –
3 | CN(C)CCc1c[nH]c2cccc(OP(=O)(O)O)c12 [psilocybin, 4-phosphoryloxy-N,N-dimethyltrypatmine] | – | – | – | – | – | – | – | – | – | – | – | – | – | – | – | – | – | – | 67 | 80
